Measurements from US20060122228A1, “Methods and compositions using immunomodulatory compounds for treatment and management of central nervous system injury” (priority 2004, published 2006).
Values joined by “and” are separate entries in the source; they are usually repeats but may differ in a detail not shown here. Equal values may be shown once. Read-outs that look alike come from different tables or passages of the source.

How the values were obtained:
[1] = cited from earlier work
TNF-α production [2] = details: LPS-stimulated PBMC, cited from earlier work; for IC50: read-out: IC50 for inhibiting production of TNF-α
Hs Sultan cells = test: Inhibition of proliferation of Hs Sultan cells; format: cell-based; details: read-out: concentration achieving 50% inhibition of proliferation
TNF-α production [3] = details: LPS-stimulated human whole blood, cited from earlier work; for IC50: read-out: IC50 for inhibiting production of TNF-α
MM.IS cells = test: Inhibition of proliferation of MM.IS cells; format: cell-based; details: read-out: concentration achieving 50% inhibition of proliferation
IL-1β production = test: LPS-stimulated production of IL-1β by PBMC; format: cell-based
IL-6 production = test: LPS-stimulated production of IL-6 by PBMC; format: cell-based
IL-10 production = test: LPS-stimulated production of IL-10 by PBMC; format: cell-based
T-cells = test: Stimulation of T-cell proliferation following primary induction by T-cell receptor (TCR) activation; format: cell-based
IL-2 production = test: Augmentation of IL-2 production following TCR activation of PBMC; format: cell-based
IFN-γ production = test: Augmentation of IFN-γ production following TCR activation of T-cells; format: cell-based
TNF-α production [4] = test: Inhibition of TNF-α production following LPS-stimulation of human PBMC; format: cell-based

Row | Compound | stability / interconversion in aqueous solvent systems [1] | IC50 for inhibiting production of TNF-α (TNF-α production [2]) [µg/mL] | IC50 (TNF-α production [2]) [nM] | IC50 for inhibiting production of TNF-α (TNF-α production [3]) [µg/mL] | IC50 (TNF-α production [3]) [nM] | other results
1 | Nc1cccc2c1CN(C1CCC(=O)NC1=O)C2=O (stereo not shown) [Form B, 3-(4-amino-1-oxo-1,3 dihydro-isoindol-2-yl)-piperidene-2,6-dione] | converts to Form E |  |  |  |  | 
2 | Nc1cccc2c1C(=O)N(C1CCC(=O)NC1=O)C2=O (stereo not shown) [4-(amino)-2-(2,6-dioxo(3-piperidyl))-isoindoline-1,3-dione] |  | ~0.00655 | ~24 | ~0.00683 | ~25 | IC50 (Hs Sultan cells): 0.00273 µg/mL to 0.0273 µg/mL and 10 nM to 100 nM; IC50 (MM.IS cells): 0.00273 µg/mL to 0.0273 µg/mL and 10 nM to 100 nM
3 | Nc1cccc2c1CN(C1CCC(=O)NC1=O)C2=O (stereo not shown) [Form E, 3-(4-amino-1-oxo-1,3 dihydro-isoindol-2-yl)-piperidene-2,6-dione] | most stable form |  |  |  |  | 
4 | Nc1cccc2c1CN(C1CCC(=O)NC1=O)C2=O (stereo not shown) [Form A, 3-(4-amino-1-oxo-1,3 dihydro-isoindol-2-yl)-piperidene-2,6-dione] |  |  |  |  |  | thermodynamic stability among polymorphs ([1]; anhydrous polymorphs): most thermodynamically stable anhydrous polymorph
5 | O=C1CCC(N2C(=O)c3ccccc3C2=O)C(=O)N1 (stereo not shown) [Thalidomide, thalidomide, reference compound] |  | ~50.2 | ~194000 |  |  | 
6 | Nc1cccc2c1CN(C1CCC(=O)NC1=O)C2=O (stereo not shown) [3-(4-amino-1-oxo-1,3-dihydro-isoindol-2-yl)-piperidine-2,6-dione] |  | ~0.0259 | ~100 | ~0.1036 | ~480 | effect on LPS-stimulated production of IL-1β (IL-1β production): dose-dependent inhibition; effect on LPS-stimulated production of IL-6 (IL-6 production): dose-dependent inhibition; effect on production of the anti-inflammatory cytokine IL-10 (IL-10 production): increased production; potency relative to thalidomide in stimulating the proliferation of T-cells (T-cells): 50-100 times; potency relative to thalidomide in augmenting the production of IL-2 (IL-2 production): 50-100 times; potency relative to thalidomide in augmenting the production of IFN-γ (IFN-γ production): 50-100 times; effect on LPS-stimulated production of TNF-α (TNF-α production [4]): dose-dependent inhibition
